Laboratory results: PMC11358582, “Discovery of a potential bladder cancer inhibitor CHNQD-01281 by regulating EGFR and promoting infiltration of cytotoxic T cells” (Marine Life Science & Technology, 2024)
Values after ≈ are worked out from the molar mass of the structure shown.

Legend:
J82 cell line = assay: Wound healing assay (migration); assay type: cell-based, human; conditions: J82, 0.16 µmol/L, 24 h
Procedure: (§1) Fig. 3 Effects of CHNQD-01281 on colony formation and migration of T24 and J82 cell lines. A T24 and J82 cell lines were cultured for 12 days with varying concentrations of CHNQD-01281 (0−0.16 μmol/L) and colonies were fixed and dyed with 0.1% crystal violet. B The relative colony numbers are shown. C Scratches of T24 and J82 cell colonies were generated with pipette tips (200 μL). After 24 h of incubation with 0−0.16 μmol/L CHNQD-01281, representative images were captured. D Histograms display the healed rate. Data are represented as the mean ± SD of three independent experiments. **P < 0.01, ***P < 0.001 and ****P < 0.0001 versus the 0 μmol/L group
(§2) Metastasis and invasiveness are important indications for progression of bladder cancer. […] At the concentration of 0.16 µmol/L, the healed rate of T24 and J82 was 21% and 29%, respectively.

T24 cell line = assay: Wound healing assay (migration); assay type: cell-based, human; conditions: T24, 0.16 µmol/L, 24 h
Procedure: as §1, §2

cleaved PARP = assay: Western blot of apoptosis-related protein; assay type: cell-based, human; conditions: Fig. S11b
Procedure: (§3) T24 and J82 cell lines were lysed in protein lysis buffer, which included phosphatase inhibitors and a cocktail of protease inhibitors. A BCA kit (SparkJade, China) was used to determine the total protein concentration. After protein denaturation, SDS-PAGE electrophoresis was performed and the protein transferred from the gel to a PVDF membrane (Millipore, USA). Then primary antibodies against cleaved caspases-3, cleaved PARP, AKT, phosphorylated AKT, ERK1/2, phosphorylated ERK1/2, EGFR, mTOR, phosphorylated mTOR and Tubulin (CST, USA) were diluted at 1:1000 at 4 °C overnight. The membranes were then washed and incubated with secondary antibodies dissolved in 5% nonfat milk. A chemiluminescence imaging system was used to detect the signals (Tanon, China).
(§4) Furthermore, treatment with CHNQD-01281 induced a dose-dependent increase in the total apoptosis of T24 and J82 cell lines. […] Meanwhile, the expression of apoptosis-related proteins cleaved PARP and cleaved caspase-3 were detected by Western blot. […] Therefore, CHNQD-01281 can induce DNA damage to arrest the cell cycle at the G0/G1 phase, affect the expression of DNA damage repair enzyme PARP, and finally induce apoptosis of bladder cancer cell lines.

cleaved caspase-3 = assay: Western blot of apoptosis-related protein; assay type: cell-based, human; conditions: Fig. S11b
Procedure: as §3, §4

EGFR = assay: Western blot of EGFR expression in T24 cells; assay type: cell-based, human; conditions: T24, 0.16 µmol/L, versus control
Procedure: as §3
EGFR is overexpressed in malignant urothelial cells, which is associated with the deterioration, invasiveness and metastasis of tumors. It is a potential therapeutic target for bladder carcinoma. Therefore, we examined the expression of EGFR and its downstream proteins after treating bladder cancer cells with CHNQD-01281 (Supplementary Fig. S11). […] Taken together, CHNQD-01281 inhibited the proliferation of bladder cancer cells and induced apoptosis through EGFR/PI3K/AKT and EGFR/ERK pathways to exert antitumor effects.

[1] = Solubility in selected aqueous solutions; assay type: physicochemical
Text: The problem of poor water solubility is one of the factors that seriously restricts the preclinical application of BFA. Therefore, from the perspective of pharmaceutics, it is of great application value to explore safe and effective methods to improve its solubility. Based on the previous screening of commonly used solvents, solubilizers and co-solvents for BFA and its derivatives, we explored the solubility of CHNQD-01281, which was compared and assessed in selected aqueous solutions (Table 1). Saline or PBS were commonly used solvents, but the solubility of BFA or CHNQD-01281 was less than 1 mg/mL when used alone. No significant improvement in solubility was observed after the addition of DMSO or PEG400. […] More importantly, the solution system of CHNQD-01281 with saline/DMSO/solutol HS-15 (85/5/10) can fully meet the needs of follow-up experiments in vivo, such as pharmacodynamics, pharmacokinetics and safety evaluation.

MB49 tumor = assay: MB49 homologous (syngeneic) tumor model; assay type: in vivo, C57BL/6 mice
Procedure: Specific pathogen free (SPF)-grade C57BL/6 mice and BALB/c-nu mice were purchased from Jinan Pengyue Experimental Animal Center (license No. SCXK 20190003). The protocol was approved by the Research Review Committee of the Ocean University of China. All mice were housed in 12-h light and 12-h dark conditions in which the humidity was 50% ± 10% and the temperature was 22 ± 2 °C. All mice had free access to food and water. The human bladder cancer cell line T24 was injected subcutaneously into BALB/c-nu mice to construct a xenograft tumor model. The cell suspension of mouse bladder cancer cell line MB49 was injected into C57BL/6 mice subcutaneously to construct a syngeneic tumor model.
Fixed tissues were embedded in paraffin and then sectioned. The specimens were incubated with antibodies against Ki67, CD3, CD4, CD8 (Servicebio, China) and EGFR (ABclonal, China) at 4 °C overnight. The next day, the slides were washed with 1 × PBST three times for 5 min each and stained with the secondary antibodies and Hoechst 33342 dye (Beyotime, China) for 60 min for IF. For IHC staining, the sections were developed with a rabbit/mouse HRP kits (DAB) (Beyotime, China) according to the manufacturer’s instructions.
In addition, apoptosis, necrosis, and increased eosinophil cytoplasm were observed and there was a large number of lymphocyte infiltration in the treatment group.

[2] = Tissue distribution in tumor and main organs; assay type: in vivo, C57BL/6 mice; conditions: tumor, heart, duodenum and spleen
Procedure: To further investigate the safety profile of CHNQD-01281 in vivo, the HE staining of the heart, liver, spleen, lung, kidney and duodenum of C57 mice were analyzed after the single dose of CHNQD-01281 (100 mg/kg, i.p.). […] The distribution of CHNQD-01281 in tumor and main organs of C57BL/6 mice was then analyzed.
Fig. S14. Safety profile and tissue distribution of CHNQD-01281 in vivo. A Representative H&E staining images (scale bar: 50 μm) of main organs from vehicle and CHNQD-01281 (100 mg/kg, ip.) treated C57BL/6 mice (n = 3). B Bodyweight evaluation of mouse after treatment with vehicle and CHNQD-01281. C Tissue distribution of CHNQD-01281 in C57BL/6 mice (n = 3).

C[C@H]1CCC/C=C/[C@@H]2C[C@H](O)C[C@H]2[C@H](OC(=O)/C=C/c2cccnc2)/C=C/C(=O)O1 [CHNQD-01281, Brefeldin A 4-O-3-(pyridin-3-yl) acrylate]
healed rate (J82 cell line): 29% | healed rate (T24 cell line): 21% | maximum expression level of cleaved PARP (cleaved PARP): 0.95 fold of the control group | maximum expression level of cleaved caspase-3 (cleaved caspase-3): 1.23 fold of the control group | maximum down-regulation of EGFR expression (EGFR): 77.61% | solubility ([1]; Saline or PBS used alone): < 1000 µg/mL | solubility ([1]; aqueous with cosolvent or surfactant or cyclodextrin, No. 2: Saline/DMSO 95/5, pH 7.4, 25 °C): < 1000 µg/mL | solubility ([1]; aqueous with cosolvent or surfactant or cyclodextrin, No. 3: PBS/DMSO 95/5, pH 7.4, 25 °C): < 1000 µg/mL | solubility ([1]; aqueous with cosolvent or surfactant or cyclodextrin, No. 4: Saline/PEG400 95/5, pH 7.4, 25 °C): < 1000 µg/mL | solubility ([1]; aqueous with cosolvent or surfactant or cyclodextrin, No. 5: Saline/PEG400 80/20, pH 7.4, 25 °C): < 1000 µg/mL | solubility ([1]; aqueous with cosolvent or surfactant or cyclodextrin, No. 6: Saline/DMSO/solutol HS-15 85/5/10, pH 7.4, 25 °C): 12000 to 15000 µg/mL (≈ 29200 to 36500 µM) | solubility ([1]; aqueous with cosolvent or surfactant or cyclodextrin, No. 7: Saline/solutol HS-15 95/5, pH 7.4, 25 °C): < 1000 µg/mL | solubility ([1]; aqueous with cosolvent or surfactant or cyclodextrin, No. 8: Saline/solutol HS-15 90/10, pH 7.4, 25 °C): < 1000 µg/mL | solubility ([1]; saline or isotonic, No. 1: Saline (0.9% NaCl) 100, pH 7.4, 25 °C): < 1000 µg/mL | improvement of solubility versus BFA ([1]; saline with 5% DMSO and 10% solutol HS-15): approximately tenfold | mice with tumor disappearance (MB49 tumor; 10 mg/kg intratumoral, no recurrence within 30 days after cessation): 20% | life prolongation rate (ILS) (MB49 tumor; 10 mg/kg, intratumoral injection, QD): 68.16% | infiltration of CD3+, CD4+ and CD8+ T cells (immunofluorescence) (MB49 tumor; 10 mg/kg, intratumoral injection, QD, tumor tissue): significantly increased | time of rapid concentration elimination [2]: ≤ 1 h
